Tests used:
Format in all cases: cell-based, human
CD49f^+ astrocytes = assay: Intracellular Ca2+ imaging of hiPSC-astrocytes after ATP application; details: 100 μM ATP, 60s application
Text: See also FIG. 32. […] Bar graphs show the maximum number of evoked spikes per 1 second stimulus (n=8/18), the maximum firing frequency in hertz (Hz) (n=5/15), the amplitude adaptation ratio between first and last action potential (n=5/15), the maximum action potential height (mV) (n=8/17), and the frequency of spontaneous excitatory post-synaptic currents (Hz) (n=5/9) in hiPSC-neurons at day 50 when cultured alone vs. with astrocytes during days 33-50. Dots correspond to 3 different lines. Each dot represents an independent cell. n=neurons alone/neurons co-cultured with astrocytes. Error bars show mean±standard deviation. p-values were calculated using a two-tailed, unpaired t-test. […] Scale bar, 50 μm. […] Error bars show mean±standard deviation (n=3 technical replicates). p-values were calculated using a two-tailed, unpaired t-test. […] Error bars show mean±standard deviation (n=4 technical replicates). p-values were calculated using a one-way ANOVA with Dunnett's correction for multiple comparisons. […] Error bars show mean±standard deviation. p-values were calculated using a one-way ANOVA with Dunnett's correction for multiple comparisons.
CD49f^+ astrocytes from three iPSC lines were cultured on glass coverslips coated with 0.1 mg/ml poly-L-ornithine followed by 10 μg/ml laminin. […] Fluorescence was recorded at 2 Hz by a cooled CCD camera (Hamamatsu™ Orca R^2). […]

[1] = system: OLIG2-GFP knock-in hESC reporter line; assay: OLIG2-GFP expression by flow cytometry during differentiation of hESC reporter line; details: RA 100 nM from beginning of induction, SHH 100 ng/ml from day 8, or SAG replacing SHH, added to RA
Experimental: RA at a concentration of 100 nM from day 0 results in the highest yield of GFP^+ cells. […] Negative: human embryonic stem cell (hESC) line RUES1. […] Error bars are SEM (N=3). […] Only GFP^+ cells form spheres, providing enrichment to the GFP^+ population.
An OLIG2-GFP knock-in hESC reporter line was used to track OLIG2^+ progenitors by live fluorescent imaging. First, PAX6^+ cells were induced using dual inhibition of SMAD signaling in adherent cultures. Next, to mimic the embryonic spinal cord environment, different concentrations of RA and/or SHH were applied at various times and quantified OLIG2-GFP expression through flow cytometry (FIG. 2A).
At day 12, cells were detached and placed into low-attachment plates to promote their aggregation into spheres. The minimum number of cells required to form a sphere was at least 100 cells, and we noted that the majority of cells in the spheres were GFP^+. […]
(§1) Cells were enzymatically harvested by Accutase™ treatment for 25 minutes at 37° C. to obtain a single cell suspension. Cells were then re-suspended in 100 μl of their respective medium containing the appropriate amount of either primary antibody or fluorescence-conjugated antibodies and were incubated on ice for 30 minutes shielded from light. […] Flow cytometry data were analyzed using BD FACSDiva™ software.

O4^+ cells = assay: FACS analysis for O4+ cells at day 75 of differentiation; details: RA only vs RA and SAG in the first 12 days of differentiation
Experimental: Endogenous SHH levels are higher in the samples that were not exposed to SHH/SAG. Error bars are SEM (N=3). […] Negative Control: APC-conjugated secondary antibody only. […] A substantial population of GFP^+ cells is present only under the dual inhibition of SMAD proteins, indicating a synergistic effect between RA and the dual inhibition of SMAD. DSi: Dual SMAD inhibition; SB: SB431542; LDN: […].
Spheres were plated on pO/L plates, as described above, in PDGF Medium at day 30, changing 2/3 of the PDGF Medium every other day until day 75 of differentiation. The appearance of O4^+ cells was assessed by live O4 staining from day 55 onwards (FIG. 6). At day 75, O4+ OPCs could be isolated by FACS (FIG. 7I). Alternatively, for terminal oligodendrocyte differentiation (FIG. 7G, 7H), cells were cultured in Glial Medium from day 75, changing 2/3 of the medium every 3 days for two weeks.
as §1

Compound	[Ca^2+]i response to extracellular ATP (CD49f^+ astrocytes)	OLIG2^+ progenitors [1] [%]	decrease in the O4^+ population in cells not provided with SAG (O4^+ cells) [%]
Nc1ncnc2c1ncn2[C@@H]1O[C@H](COP(=O)(O)OP(=O)(O)OP(=O)(O)O)[C@@H](O)[C@H]1O [ATP]	robustly responded	–	–
CC1=C(/C=C/C(C)=C/C=C/C(C)=C/C(=O)O)C(C)(C)CCC1 [RA, all trans retinoic acid]	–	40.6	–
CNC1CCC(N(Cc2cccc(-c3ccncc3)c2)C(=O)c2sc3ccccc3c2Cl)CC1 (stereo not shown) [SAG]	–	70.1	56
